Test [1] concerns IL1-β, IL-6, TNF-α, CINC-1, CINC-3, IL-10 and TGF-β. Kind of test: Dermal cytokine analysis (ELISA) in burn model. The test is classed as in vivo, Sprague-Dawley rats. A general note: ELISA stands for enzyme-linked immunosorbent assay.
The test system of test [2] is methicillin-resistant Staphylococcus aureus (MRSA). Kind of test: Susceptibility (MIC/MBC) of MRSA clinical isolates. As to conditions: Staphylococcus aureus; MRSA isolates; read-out: MIC90. In kind it is cell-based.
The subject of the next test is Myeloperoxidase. Kind of test: Detection of neutrophil sequestration (Myeloperoxidase assay) in burn model. The test is classed as in vivo, Sprague-Dawley rats. Conditions: burn wound infected with P. aeruginosa; 32 h.
A further test has as its system Pseudomonas aeruginosa. Kind of test: Quantitation of bacterial wound infection in partial thickness burn model. As to conditions: burn + P. aeruginosa. In kind it is in vivo, Sprague-Dawley rats.

Marks after values point to notes of the source that are not given here.

As a reminder, the MIC90 is an inhibitory concentration at the 90% level, which refers to growth in some studies and to a panel of isolates in others.

For the compound `NCc1ccc(S(N)(=O)=O)cc1` [Sulfamylon, mafenide acetate], the “level of IL-10 or TGF-β in the infected burn wound” value in test [1] (burn wound infected with P. aeruginosa, 32 h) was “did not suppress”. The “dermal levels of proinflammatory cytokines (IL-1β, IL-6, TNF-α, CINC-1 or CINC-3) compared to controls” value in test [1] (infected burn wound) was “did not result in any significant alteration”. In test [2], the MIC90 was above 128 µg/mL. Besides, the “myeloperoxidase (dermal neutrophil sequestration)” value in the test with Myeloperoxidase stood at 0.08 ± 0.02 µg/mL. The “Animals with CFU's/g > 1 × 10^5, n (%)” value with Pseudomonas aeruginosa (32 h) is 2 (20)* n (%). For the same compound, the “median number of CFUs of bacteria per gram of skin tissue” value in the test on Pseudomonas aeruginosa (topical treatment at 16 and 24 h, harvest at 32 h) is listed as 3×10^4 CFUs per gram.
